How the values were obtained:
[1] = tested on: Recipient C57BL/6 or IDUAKI (B6.129S-Iduatm1.1Kmke/J) mice; assay: Mouse model of inherited metabolic disease (IMD): HSC engraftment after mild non-myeloablative conditioning; type: in vivo
Source text: Recipient C57BL/6 or IDUAKI (B6.129S-Iduatm1.1Kmke/J) mice were conditioned with a mild non-myeloablative regimen. A limited number of 1×10E3 HSC were transplanted from congenic mice. Groups were either untreated or treated with KRP for 15 days.

patients undergoing HSCT = assay: Neutrophil engraftment in patients after allogeneic hematopoietic stem cell transplantation; type: in vivo; conditions: for neutrophil count above baseline: e.g. 2 mg KRP203/per day
Description: Day 1=drug treatment commences (e.g. 2 mg KRP203/per day)
Day 2 and Day 10: Conditioning was performed as described above (e.g. Mini Seattle or RIC)
Day 11: transplantation of stem cells from an allogeneic donor is being carried out
To monitor for engraftment of donor hematopoietic stem cells in recipients, the neutrophil count is measured usually daily. The commonly accepted definition of “day of engraftment” (take) is the first of three consecutive days with a neutrophil count higher than 500 cells per microliter. A neutrophil count of higher than 500 cells per microliter is reached in the below experiment, when the probability of engraftment is 1.0 (100%) versus baseline or higher. The donor origin of these cells is normally confirmed by genomic analyses on day 30.

[2] = day 56, 1×10E3 HSC from congenic mice, treated for 15 days, vs untreated group

## NC(CO)(CO)CCc1ccc(Sc2cccc(OCc3ccccc3)c2)cc1Cl [KRP203, 2-amino-2-[4-(3-benzyloxyphenylthio)-2-chlorophenyl]ethyl-propane-1,3-diol]
[1]; [2]
  donor cells in engrafted mice: more donor cells than the untreated group
  mice engrafted: More mice from the KRP203 treated group engrafted
[1]; non-myeloablative conditions, limited HSC, treatment in the peri-transplant period
  engraftment (conclusion): augments engraftment
Patients undergoing HSCT; Day 0
  Probability of neutrophil engraftment: 0.00
Patients undergoing HSCT; Day 10
  Probability of neutrophil engraftment: 0.00
Patients undergoing HSCT; Day 11
  Probability of neutrophil engraftment: 0.33
Patients undergoing HSCT; Day 11, control group 11%
  neutrophil count above baseline: 33 % above baseline
Patients undergoing HSCT; Day 12
  Probability of neutrophil engraftment: 0.44
Patients undergoing HSCT; Day 13
  Probability of neutrophil engraftment: 0.67
Patients undergoing HSCT; Day 14
  Probability of neutrophil engraftment: 0.89
Patients undergoing HSCT; Day 15
  Probability of neutrophil engraftment: 1.00
Patients undergoing HSCT; Day 15, control group 48%
  neutrophil count above baseline: 100 % above baseline
Patients undergoing HSCT; Day 16
  Probability of neutrophil engraftment: 1.00
Patients undergoing HSCT; Day 17
  Probability of neutrophil engraftment: 1.00
Patients undergoing HSCT; Day 18
  Probability of neutrophil engraftment: 1.00
Patients undergoing HSCT; Day 19
  Probability of neutrophil engraftment: 1.00
Patients undergoing HSCT; Day 20
  Probability of neutrophil engraftment: 1.00
Patients undergoing HSCT; Day 21
  Probability of neutrophil engraftment: 1.00
Patients undergoing HSCT; Day 22
  Probability of neutrophil engraftment: 1.00
Patients undergoing HSCT; Day 23
  Probability of neutrophil engraftment: 1.00
Patients undergoing HSCT; FIG. 1 and Table 1, patients treated with KRP203
  speed of engraftment vs control group: engrafted much faster than the control group

Source: patent US20210346317A1, “TREATMENT OF HEMATOPOIETIC STEM CELL TRANSPLANT PATIENTS” (PRIOTHERA LIMITED, priority 2016, published 2021)
